In PubChem BioAssay (NCI):
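GI50 marks 50% less growth. At the TGI there is no net growth.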

How the values were obtained:
Assay in all cases: growth of human tumour cells (NCI), 384-well format
[1] = tested on: 786-0 renal
[2] = tested on: A498 renal
[3] = tested on: A549 NSCLC
[4] = tested on: ACHN renal
[5] = tested on: BT-549 breast
[6] = tested on: CAKI-1 renal
[7] = tested on: CCRF-CEM leukemia
[8] = tested on: COLO 205 colon
[9] = tested on: DU-145 prostate
[10] = tested on: EKVX NSCLC
[11] = tested on: HCC-2998 colon
[12] = tested on: HCT-116 colon
[13] = tested on: HCT-15 colon
[14] = tested on: HL-60(TB) leukemia
[15] = tested on: HOP-62 NSCLC
[16] = tested on: HOP-92 NSCLC
[17] = tested on: HS 578T breast
[18] = tested on: HT29 colon
[19] = tested on: IGROV1 ovarian
[20] = tested on: K-562 leukemia
[21] = tested on: KM12 colon
[22] = tested on: LOX IMVI melanoma
[23] = tested on: M14 melanoma
[24] = tested on: MALME-3M melanoma
[25] = tested on: MCF7 breast
[26] = tested on: MDA-MB-231 breast
[27] = tested on: MDA-MB-435 melanoma
[28] = tested on: MDA-MB-468 breast
[29] = tested on: MOLT-4 leukemia

## NC1CCC(N[C@@H]2C[C@H]2c2ccccc2)CC1 (stereo partly drawn)
[1]
  GI50: 33.4 µM
  TGI: > 100 µM
[2]
  GI50: 28.3 µM
  TGI: > 100 µM
[3]
  GI50: > 100 µM
  TGI: > 100 µM
[4]
  GI50: > 100 µM
  TGI: > 100 µM
[5]
  GI50: 46.2 µM
  TGI: > 100 µM
[6]
  GI50: 35.2 µM
  TGI: > 100 µM
[7]
  GI50: 31.5 µM
  TGI: > 100 µM
[8]
  GI50: 66.7 µM
  TGI: > 100 µM
[9]
  GI50: 87.1 µM
  TGI: > 100 µM
[10]
  GI50: 40.2 µM
  TGI: > 100 µM
[11]
  GI50: 40.1 µM
  TGI: > 100 µM
[12]
  GI50: 41.6 µM
  TGI: > 100 µM
[13]
  GI50: 34.1 µM
  TGI: > 100 µM
[14]
  GI50: 10.2 µM
  TGI: 28.9 µM
[15]
  GI50: 66.9 µM
  TGI: > 100 µM
[16]
  GI50: 35.9 µM
  TGI: > 100 µM
[17]
  GI50: 37.5 µM
  TGI: > 100 µM
[18]
  GI50: 20 µM
  TGI: 43.7 µM
[19]
  GI50: 48.8 µM
  TGI: > 100 µM
[20]
  GI50: 31.4 µM
  TGI: > 100 µM
[21]
  GI50: 61.9 µM
  TGI: > 100 µM
[22]
  GI50: 36.2 µM
  TGI: > 100 µM
[23]
  GI50: 20.9 µM
  TGI: 40.2 µM
[24]
  GI50: 21 µM
  TGI: 47.3 µM
[25]
  GI50: > 100 µM
  TGI: > 100 µM
[26]
  GI50: 90.5 µM
  TGI: > 100 µM
[27]
  GI50: 38.1 µM
  TGI: > 100 µM
[28]
  GI50: 58.9 µM
  TGI: > 100 µM
[29]
  GI50: 24 µM
  TGI: 77.8 µM
